Patent US20140025310A1, “METHOD FOR DETERMINING THE EFFICACY OF A COMBINATION THERAPY” (priority 2009, published 2014)

Assays:
patient's virus = test: Susceptibility score of the patient's virus to a drug (% activity from clinical cut-off models); design: species or system HIV-1; settings: 1 = fully sensitive, 0 = fully resistant
From the text: Interpretation algorithms provide a resistance call for each available HIV drug. Often this is a three way classification i.e. sensitive (a score of 1), intermediate resistant (a score of 0.5) or resistant (a score of 0). For VircoType (WO 01/79540) the interpretation is for instance based on a statistical model, leading to the definition of so called clinical cut-offs (CCO), that predicts the % activity of a drug (i.e. the susceptibility score) as a function of fold change at the start of the regimen. The % activity left was calculated by dividing the predicted viral load change for the patients' virus with a certain resistance profile by the predicted viral load for a wild-type virus. This is an ordinal value that varies between 0% (or a score of 0) and 100% (or a score of 1). Based on these values, clinical cutoffs (phenotypic threshold values) were derived to classify a virus sample into maximal response, reduced response and minimal response as described in WO 2005/086061.
(§1) Therefore, statistical models were applied to handle these differences. […] E.g.

HIV-1 = settings: difference in viral load response (log scale) vs ritonavir boosted lopinavir after 8 weeks of stable treatment; double robust estimation
From the text: as §1

Compound: O=c1[nH]cnc2c1ncn2[C@H]1CC[C@@H](CO)O1 [DDI]
- susceptibility score (patient's virus; Patient 1 virus): 1

Compound: O=C1Nc2ccc(Cl)cc2[C@@](C#CC2CC2)(C(F)(F)F)O1 [EFV]
- susceptibility score (patient's virus; Patient 2 virus): fully active

Compound: CC(C)OC(=O)OCOP(=O)(CO[C@H](C)Cn1cnc2c(N)ncnc21)OCOC(=O)OC(C)C.O=C(O)/C=C/C(=O)O [TDF]
- susceptibility score (patient's virus; Patient 1 virus): 1
- susceptibility score (patient's virus; Patient 2 virus): 1

Compound: atazanavir [ATV/r]
- Weight (drug weight) (HIV-1): −0.02
- susceptibility score (patient's virus; Patient 2 virus): 1

Compound: lopinavir [LPV/r]
- Weight (drug weight) (HIV-1): 0
- susceptibility score (patient's virus; Patient 1 virus): 0.24
